Assay [1] concerns F. nucleatum subsp. polymorphum ATCC10953. In words: MIC vs. oral germs, broth dilution method. It is filed as cell-based, Fusobacterium nucleatum subsp. polymorphum. To be noted: broth dilution; 7-10 days at 37° C., anaerobic. From the text:
(§1) b) Determination of MIC vs. different oral germs in the broth dilution method • Medium: Thioglycolate Bouillon with Hemin and Menadion Columbia Bouillon with Hemin and Menadion für P. gingivalis und P. nigrescens • diluent: the corresponding amount of the substances was pippeted directly • Examples of Test organisms: • Actinobacillus actinomycetemcomitans ATCC43718 • Streptococcus gordonii ATCC10558 • Streptococcus mutans ATCC33402 • Actinomyces viscosus ATCC43146 • Fusobacterium nucleatum subsp. polymorphum ATCC1095 • Porphyromonas gingivalis ATCC3277 • Prevotella nigrescens ATCC33563 • Incubation: 7-10 days at 37° C. under anaerobic conditions, resp. 24 h aerobically with 10% CO2 for Streptococci und A. actinomycetemcomitans • Test solution: Stock solutions in ethanol with 1500 ppm (w/w) are used from all test substances
(§2) Bacteria are taken from blood agar plates with cotton swabs and a suitable O.D. is adjusted in the corresponding medium (McFarland 0.5). This solution is used for F. nucleatum and P. nigrescens in undiluted state, for the other strains a dilution of 1:20 is used. To each 2 ml of active ingredient containing solution 0.1 ml of the bacteria culture is added and incubated as described above.
(Dilution methods test growth across graded concentrations, often in twofold steps.)

The subject of assay [2] is A. actinomycetemcomitans ATCC43718. In words: MIC vs. oral germs, broth dilution method. The class given is cell-based, Actinobacillus actinomycetemcomitans. The conditions noted are these: broth dilution; 24 h aerobically with 10% CO2, 37° C.
Source text: as §1, §2

The subject of a further assay is P. nigrescens ATCC33563. The experiment in a line: MIC vs. oral germs, broth dilution method. The class given is cell-based, Prevotella nigrescens. The conditions noted are these: broth dilution, Columbia Bouillon with Hemin and Menadion; 7-10 days at 37° C., anaerobic.
Source text: as §1, §2

The test system of another assay is S. gordonii ATCC10558. In words: MIC vs. oral germs, broth dilution method. To be noted: broth dilution; 24 h aerobically with 10% CO2, 37° C. It is filed as cell-based, Streptococcus gordonii.
Source text: as §1, §2

The subject of another assay is P. gingivalis ATCC3277. The experiment in a line: MIC vs. oral germs, broth dilution method. It is filed as cell-based, Porphyromonas gingivalis. To be noted: broth dilution, Columbia Bouillon with Hemin and Menadion; 7-10 days at 37° C., anaerobic.
Source text: as §1, §2

The subject of a further assay is S. mutans ATCC33402. The experiment in a line: MIC vs. oral germs, broth dilution method. It is filed as cell-based, Streptococcus mutans. To be noted: broth dilution; 24 h aerobically with 10% CO2, 37° C.
Source text: as §1, §2

Another assay concerns A. viscosus ATCC43146. The experiment in a line: MIC vs. oral germs, broth dilution method. It is filed as cell-based, Actinomyces viscosus. To be noted: broth dilution; 7-10 days at 37° C., anaerobic.
Source text: as §1, §2

For assay [3], the system named is Candida albicans ATCC 10231. The experiment in a line: MIC, Agar incorporation test. It is filed as cell-based. To be noted: Sabouraud 4% glucose agar, 3 days at 28° C. On the procedure: 0.3 ml of each dilution step is mixed with 15 ml of nutrient medium while the latter is still liquid. After the nutrient medium has solidified, 10 μl of each of the following organism dilutions of the test strains in 0.85% NaCl solution are spotted onto the agar medium. […]

The subject of assay [4] is Salmonella choleraesuis ATCC 9184. The experiment in a line: MIC, Agar incorporation test. It is filed as cell-based. To be noted: 24 hours at 37° C.
Assay [5] has as its system Escherischia coli ATCC 10536. The experiment in a line: MIC, Agar incorporation test. It is filed as cell-based. The conditions noted are these: 24 hours at 37° C. On the procedure: (§3) 0.3 ml of each dilution step is mixed with 15 ml of nutrient medium while the latter is still liquid. After the nutrient medium has solidified, 10 μl of each of the following organism dilutions of the test strains in 0.85% NaCl solution are spotted onto the agar medium.
(§4) The plates are incubated during 24 hours at 37° C. and then the highest dilution (lowest concentration) of the test substance at which growth is just no longer discernible (corresponds to the MIC) is determined.

Assay [6] deals with Corynebacterium xerosis ATCC 373. The experiment in a line: MIC, Agar incorporation test. The class given is cell-based. To be noted: 24 hours at 37° C. On the procedure:
as §3, §4

Assay [7] has as its system Aspergillus niger ATCC 6275. The experiment in a line: MIC, Agar incorporation test. The class given is cell-based. On the procedure:
as §3, §4

Assay [8] concerns Klebsiella pneumoniae ATCC 4352. The experiment in a line: MIC, Agar incorporation test. It is filed as cell-based. The conditions noted are these: 24 hours at 37° C. On the procedure: as §3, §4
In assay [9] the test system is Proteus vulgaris ATCC 6896. The experiment in a line: MIC, Agar incorporation test. The class given is cell-based. To be noted: 24 hours at 37° C. On the procedure: as §3, §4
The subject of assay [10] is Pseudomonas aeruginosa ATCC 15442. The experiment in a line: MIC, Agar incorporation test. The class given is cell-based. To be noted: 24 hours at 37° C. Here is the method: as §3, §4
Assay [11] concerns Propionibacterium acnes ATCC 6919. The experiment in a line: MIC, Agar incorporation test. It is filed as cell-based. The conditions noted are these: 24 hours at 37° C. Here is the method:
as §3, §4

The test system of assay [12] is Staphylococcus aureus ATCC 6538. In words: MIC, Agar incorporation test. It is filed as cell-based. The conditions noted are these: 24 hours at 37° C. Here is the method:
as §3, §4

Assay [13] has as its system C. minutissimum ATCC 23348. The experiment in a line: MIC, Agar incorporation test. It is filed as cell-based. To be noted: 24 hours at 37° C. Here is the method: as §3, §4
Assay [14] concerns Staphylococcus epidermidis ATCC 12228. In words: MIC, Agar incorporation test. It is filed as cell-based. To be noted: 24 hours at 37° C. On the procedure:
as §3, §4

The results in this text go back to patent publication US7476753B2, “3-aryl-2-cyano-3-hydroxy-acrylic acid derivatives” (Ciba Specialty Chemicals Corporation, priority 2003, dated 2009).

The structures appear in SMILES notation.

For the compound `CCCCC(CC)COC(=O)C(C#N)=C(O)c1ccc(-c2ccc(C(O)=C(C#N)C(=O)OCC(CC)CCCC)cc2)cc1` (stereo not shown) [(102b)], in [1], the “MHK (MIC) F. nucleatum subsp. polymorphum ATCC10953” value is given as more than 15 ppm. In addition, in assay [2], the “MHK (MIC) A. actinomycetemcomitans ATCC43718” value is more than 15 ppm. Moreover, the “MHK (MIC) P. nigrescens ATCC33563” value in the assay with P. nigrescens ATCC33563 is more than 15 ppm. In the assay with S. gordonii ATCC10558, the “MHK (MIC) S. gordonii ATCC10558” value amounted to 15 ppm. In addition, the “MHK (MIC) P. gingivalis ATCC3277” value with P. gingivalis ATCC3277 is on record as more than 15 ppm. Besides, the “MHK (MIC) S. mutans ATCC33402” value in the assay on S. mutans ATCC33402 is listed as more than 15 ppm. Moreover, the “MHK (MIC) A. viscosus ATCC43146” value with A. viscosus ATCC43146 is 7.5 ppm. Also, the “MIC Candida albicans ATCC 10231” value in assay [3] is given as more than 400 ppm. In assay [4], the “MIC Salmonella choleraesuis ATCC 9184” value is more than 400 ppm. Besides, the “MIC Escherischia coli ATCC 10536” value in assay [5] is reported as more than 400 ppm. For the same compound, the “MIC Corynebacterium xerosis ATCC 373” value in [6] is on record as less than 1.56 ppm. In addition, in assay [7], the “MIC Aspergillus niger ATCC 6275” value is more than 400 ppm. Also, in [8], the “MIC Klebsiella pneumoniae ATCC 4352” value is more than 400 ppm. For the same compound, the “MIC Proteus vulgaris ATCC 6896” value in assay [9] is more than 400 ppm. Moreover, in assay [10], the “MIC Pseudomonas aeruginosa ATCC 15442” value is reported as more than 400 ppm. In addition, the “MIC Propionibacterium acnes ATCC 6919” value in [11] is on record as less than 1.56 ppm. The “MIC Staphylococcus aureus ATCC 6538” value in [12] stood at 100 ppm. In addition, the “MIC C. minutissimum ATCC 23348” value in [13] was 50 ppm. Besides, the “MIC Staphylococcus epidermidis ATCC 12228” value in assay [14] is reported as 25 ppm.
